Measurements from patent US20190119298A1, “FUSED 3-PHENYLTETRAMIC ACID DERIVATIVES HAVING HERBICIDAL ACTION” (Bayer CropScience Aktiengesellschaft, priority 2016, published 2019).

Columns and labels:
Format in all cases: in vivo
Alopecurus myosuroides [1] = assay: Pre-emergence herbicidal effect; conditions: 320 g/ha, scored visually after 3 weeks vs untreated controls, 100% = plants have died
Source text: (§1) Seeds of monocotyledonous and dicotyledonous weed plants and crop plants are laid out in sandy loam soil in wood-fibre pots and covered with soil. The compounds of the invention, formulated in the form of wettable powders (WP) or as emulsion concentrates (EC), are then applied to the surface of the covering soil as aqueous suspension or emulsion at a water application rate equating to 600 to 800 L/ha with addition of 0.2% wetting agent. After the treatment, the pots are placed in a greenhouse and kept under good growth conditions for the trial plants. The damage to the test plants is scored visually after a test period of 3 weeks by comparison with untreated controls (herbicidal activity in percent (%): 100% activity=the plants have died, 0% activity=like control plants). ALOMY: Alopecurus myosuroides

Lolium multiflorum [2] = assay: Pre-emergence herbicidal effect; conditions: 320 g/ha, scored visually after 3 weeks vs untreated controls, 100% = plants have died
Source text: as §1, with “LOLMU: Lolium multiflorum” for “ALOMY: Alopecurus myosuroides”

Alopecurus myosuroides [3] = assay: Post-emergence herbicidal effect; conditions: one-leaf stage, 320 g/ha, assessed visually after about 3 weeks, 100% = plants have died
Protocol: (§2) ALOMY: Alopecurus myosuroides Seeds of monocotyledonous and dicotyledonous weed and crop plants are laid out in sandy loam soil in wood-fibre pots, covered with soil and cultivated in a greenhouse under good growth conditions. 2 to 3 weeks after sowing, the test plants are treated at the one-leaf stage. The compounds of the invention, formulated in the form of wettable powders (WP) or as emulsion concentrates (EC), are then sprayed onto the green parts of the plants as aqueous suspension or emulsion at a water application rate equating to 600 to 800 L/ha with addition of 0.2% wetting agent. After the test plants have been left to stand in the greenhouse under optimal growth conditions for about 3 weeks, the action of the preparations is assessed visually in comparison to untreated controls (herbicidal action in percent (%): 100% activity=the plants have died, 0% activity=like control plants).

Avena fatua [4] = assay: Post-emergence herbicidal effect; conditions: one-leaf stage, 320 g/ha, assessed visually after about 3 weeks, 100% = plants have died
Protocol: as §2, with “AVEFA: Avena fatua” for “ALOMY: Alopecurus myosuroides”

Echinochloa crus-galli [5] = assay: Post-emergence herbicidal effect; conditions: one-leaf stage, 320 g/ha, assessed visually after about 3 weeks, 100% = plants have died
Protocol: as §2, with “ECHCG: Echinochloa crus-galli” for “ALOMY: Alopecurus myosuroides”

Lolium multiflorum [6] = assay: Post-emergence herbicidal effect; conditions: one-leaf stage, 320 g/ha, assessed visually after about 3 weeks, 100% = plants have died
Protocol: as §2, with “LOLMU: Lolium multiflorum” for “ALOMY: Alopecurus myosuroides”

Setaria viridis [7] = assay: Post-emergence herbicidal effect; conditions: one-leaf stage, 320 g/ha, assessed visually after about 3 weeks, 100% = plants have died
Protocol: as §2, with “SETVI: Setaria viridis” for “ALOMY: Alopecurus myosuroides”

Avena fatua [8] = assay: Pre-emergence herbicidal effect; conditions: 320 g/ha, scored visually after 3 weeks vs untreated controls, 100% = plants have died
Source text: as §1, with “AVEFA: Avena fatua” for “ALOMY: Alopecurus myosuroides”

Echinochloa crus-galli [9] = assay: Pre-emergence herbicidal effect; conditions: 320 g/ha, scored visually after 3 weeks vs untreated controls, 100% = plants have died
Source text: as §1, with “ECHCG: Echinochloa crus-galli” for “ALOMY: Alopecurus myosuroides”

Setaria viridis [10] = assay: Pre-emergence herbicidal effect; conditions: 320 g/ha, scored visually after 3 weeks vs untreated controls, 100% = plants have died
Source text: as §1, with “SETVI: Setaria viridis” for “ALOMY: Alopecurus myosuroides”

SMILES | Pre-emergence action ALOMY (herbicidal activity in percent) (Alopecurus myosuroides [1]) [%] | Pre-emergence action LOLMU (herbicidal activity in percent) (Lolium multiflorum [2]) [%] | Post-emergence effectiveness ALOMY (herbicidal action in percent) (Alopecurus myosuroides [3]) [%] | Post-emergence effectiveness AVEFA (herbicidal action in percent) (Avena fatua [4]) [%] | Post-emergence effectiveness ECHCG (herbicidal action in percent) (Echinochloa crus-galli [5]) [%] | Post-emergence effectiveness LOLMU (herbicidal action in percent) (Lolium multiflorum [6]) [%] | Post-emergence effectiveness SETVI (herbicidal action in percent) (Setaria viridis [7]) [%] | Pre-emergence action AVEFA (herbicidal activity in percent) (Avena fatua [8]) [%] | Pre-emergence action ECHCG (herbicidal activity in percent) (Echinochloa crus-galli [9]) [%] | Pre-emergence action SETVI (herbicidal activity in percent) (Setaria viridis [10]) [%]
Cc1cc(C)c(C2=C(O)C3COCCCN3C2=O)c(C)c1 (racemic) [Ia-2-1] | 80 | 100 | 100 | 100 | 100 | 100 | 100 | – | – | –
CCc1cc(C)cc(CC)c1C1=C(O)C2COCCCN2C1=O (racemic) [Ia-2-2] | 80 | 100 | 100 | 100 | 100 | 100 | 100 | 90 | 100 | 100
CCc1cc(C)cc(CC)c1C1=C(O)C2CCOCCN2C1=O (stereo not drawn) [Example Ia-1-3, 8-(2,6-Diethyl-4-methylphenyl)-9-hydroxy-1,4,5,9a-tetrahydropyrrolo[1,2-d][1,4]oxazepin-7(2H)-one] | 100 | 100 | 100 | 100 | 100 | 100 | 100 | 100 | 100 | 100
CCc1cc(C)cc(CC)c1C1=C(OC(=O)OC)C2CCOCCN2C1=O (stereo not drawn) [Example Ib-1-1, 8-(2,6-Diethyl-4-methylphenyl)-7-oxo-1,2,4,5,7,9a-hexahydropyrrolo[1,2-d][1,4]oxazepin-9-yl methyl carbonate] | 100 | 100 | 100 | 100 | 100 | 100 | 100 | 100 | 100 | 100
CCc1cccc(C)c1C1=C(OC(C)=O)C2CCOCCN2C1=O (stereo not drawn) [Ib-1-15] | 100 | 100 | 100 | 100 | 100 | 100 | 100 | – | 100 | 100
CCOC(=O)OC1=C(c2c(CC)cc(Cl)cc2OC)C(=O)N2CCOCCC12 (stereo not drawn) [Ib-1-17] | 100 | – | 100 | 100 | 100 | 100 | 100 | 100 | 100 | 100
CCc1cc(C)cc(C)c1C1=C(OC(C)=O)C2=CCOCCN2C1=O [Ib-3-4] | – | – | 90 | 80 | 90 | 80 | 100 | – | – | –
CCc1cc(Cl)cc(OC)c1C1=C(OC(=O)C(C)(C)C)C2=CCOCCN2C1=O [Ib-3-10] | 90 | 100 | 100 | 100 | 100 | 100 | 100 | – | 100 | 100
